# Results from patent EP1276895B1, “METHOD FOR THE IDENTIFICATION OF ACTIVE SITE PROTEASE INACTIVATORS” (THE UNIVERSITY OF GEORGIA RESEARCH FOUNDATION, INC., priority 2000, dated 2001).
# Starred links: 1 amine or outer side, 2 acyl side, 3 side chain; linkers in the order of their positions; H or OH if unused. Residues, ends and D or L forms follow the SMILES beside them. *: point of attachment. AFC = O=c1cc(C(F)(F)F)c2ccc(N*)cc2o1; Suc = O=C(CCC(=O)[*:2])[*:1]; Cbz = O=C(OCc1ccccc1)*; Boc = CC(C)(C)OC(=O)*
# Key:
# [1] = tested on: purified Taenia solium cysteine protease; experiment: Competitor assay of low Vmax substrates (vehicles) against high Vmax substrate cocktails (Step III), purified protease; assay type: biochemical; conditions: purified protease; for V Value: V = P * M, P = inhibition with first (1.4%) cocktail, M = inhibition with last (7.4%) cocktail, vehicle 8X10^-6M, each cocktail substrate 1X10^-6 M
# Method: (We employed "Vmax" here although Kcat could also be used). Due to the lower number of substrates, a percentage was not chosen for the "BOTTOM %" " substrates. Alternately, all substrates which were not cleaved as determined by a value of 10 uM/hr or less, were chosen to be tested in this step for competitive ability. From this point forth, the term "vehicle" will represent low Vmax substrates that were capable of inhibiting cleavage of the percent cocktails. In this instance, we tested for "vehicles" which inhibited cleavage of the TOP 1.4% cocktail (they were delivered into the active site). Based upon our results from Step II, the top 1.4% cocktail was composed of Z-Phe-Arg-AFC, the highest cleaved substrate.
# (§1) The experiment began with a competitor test between the noncleaved low Vmax substrates and the highest Vmax substrate, Z-Phe-Arg-AFC. Concentrations were varied between the low Vmax substrate and Z-Phe-Arg-AFC, as described above under "refinement of assay" until a relative inhibition profile was obtained.
# The mixture was allowed to equilibrate for a period of 30 minutes. Finally, active purified enzyme was added to the tubes at a concentration which was always 50 times less than the concentration of the high and low Vmax substrates, in order to insure saturation conditions. This concentration varied from purification to purification and the amount added depended upon the yield and specific activity of the purified protease.
# Positive controls were set up similarly as described for test controls, except that solvent was added in substitution for the low Vmax substrate (in a volume equal to the low Vmax volume addition). All of the substrates could be dissolved in dimethylsulfoxide (DMSO), and therefore, this was the solvent of choice. Negative controls were set up by adding the low Vmax and the high Vmax substrate in a tube without the protease. All potential non-proteolytic induced liberation of AFC was therefore controlled for in this tube (a feature which also insured stability of the AFC substrates, since these substrates will freely liberate AFC when unstable). A tube set will be established for this negative control.
# All controls were set up in triplicate, and experiments repeated a minimum of five times. The assays were incubated at 37°C, for 18 hours overnight.
# (§2) Percent inhibition was calculated as: %Inhibition =; ((AFC positive for"Y"-AFC negative for"Y")-(AFC test-AFC negative for"Y")X100)/(AFC positive for "Y"-AFC negative for "Y") [formula]
# A 2.9% cocktail of the high Vmax substrates was made. This was composed of Z-FR-AFC and the second most cleaved substrate, Z-FAR-AFC. The vehicles promoted from the initial screenings above were again tested for competitive inhibition ability with the new cocktails. Their concentrations were set identically to those which were "fixed" in the previous protocols. In other words, 8X10^-6M of the vehicle was added to the culture tube with 1X10^-6 M of Z-FR-AFC and 1X10^-6 M of Z-FAR-AFC. Active protease was added last at a concentration that was 50 times less than the concentration of the high Vmax substrate (to ensure saturating conditions).
# In similar experimental fashion, a 4.4%, 5.9%, and 7.4% cocktail were tested with each of the promising vehicles. Each percentage point represented an increase by one substrate. Each of the individual components in the cocktail were added at 1X10^-6 M each, to 8X10^-6 M of the vehicle. The composition of the cocktails was as follows: 4.4% cocktail: Z-FR-AFC, Z-FAR-AFC, and Z-AAK-AFC (third highest cleaved substrate); 5.9% cocktail: Z-FR-AFC, Z-FAR-AFC, Z-AAK-AFC, and AP-AFC (fourth highest cleaved substrate); 7.4% cocktail: […], Z-FAR-AFC, Z-AAK-AFC, AP-AFC, and Z-VLR-AFC. We stopped at this number of substrates in the cocktail, since confidence was obtained that inhibitory potential of vehicles could be "diluted out."
# Finally, a manageable set of candidate vehicles was determined. […]
# [2] = tested on: purified Taenia solium cysteine protease; experiment: as above; assay type: biochemical; conditions: robustness of inhibition
# [3] = tested on: purified Taenia solium cysteine protease; experiment: Substrate cleavage screen of AFC-linked synthetic substrates (Step II), purified protease; assay type: biochemical; conditions: 1 ug purified protease, 1 ug substrate, Citrate pH 4.9 with 0.01 M cysteine, 18 h, 37 °C
# Method: In this step, the most efficacious substrate for detection of the cysteine protease (high Kcat substrate) was determined in vitro along with those substrates which were not well cleaved (low kcat substrates). From this point forth, the following conditions refer to all assays: "assay buffer" refers to 0.4 M Citrate, pH 4.9 (the pH optima of the protease). Incubation time was 18 hours at 37°C. These conditions were determined by our preliminary data to be best for kinetic evaluation of the protease. […] The experiments were conducted in […] Borosilicate mini-culture tubes (Fisher Scientific), and a fluorometer (Turner) was employed for detection of AFC cleavage.
# Approximately 1 ug (or a proteolytically detectable amount) of the purified target cysteine protease was incubated individually, with 1 ug of each of the available substrates in 500 uL of assay buffer. During this setup, the substrate was pre-incubated in the assay buffer for a short period of time (20 minutes) in order to reach an equilibrated status before the addition of the protease. Cleavage assessments were based upon the property of the protease to cleave synthetic peptide substrates linked at the C-terminus to 7-Amino-4-Trifluoromethyl Coumarin (AFC) as previously described. AFC linked tripeptides, dipeptides, and monopeptides, (with a variety of permutations at P3-P1) were available from Enzyme Systems Products (Livermore, CA), and were used as the source of the subset. Following incubation of enzyme preparations overnight (18 h, 37 °C) with peptide in assay buffer (Citrate, pH 4.9, supplemented with 0.01 M cysteine), free AFC concentrations were measured fluorometrically (excitation 405 nm, emission 505 nm). The proteolytic cleavage released the AFC group, which was measurable as a free molecule by a standard fluorometer and converted into molar quantities, based upon a previously established standard curve. The simplicity of AFC detection by the fluorometer was a key factor which quickened and simplified the procedures.
# In the assay, 1 ug of the purified Taenia cysteine protease was added to a saturating amount of Z-Phe-Arg-AFC (4X10^-5 M) in assay buffer. The experiment was conducted in triplicate and repeated at least 5 times until we were certain that variability in AFC cleavage was not statistically significant.
# (§3) Vmax was calculated for the cleavage of substrates by the purified target protease and Vmax was calculated for substrates cleaved by the crude mix protease using conventional kinetic modeling calculations already described in the art.
# Taenia solium crude mix [4] = experiment: Competitor assay of vehicles against high Vmax substrate cocktails (Step III), crude mix; assay type: biochemical
# Method: Step III for a crude mix proceeds it would for a purified protease, except that Vm is used instead of kcat.
# as §1, §2
# One of the most intriguing findings in this experiment was that a highly similar inhibition pattern for the competitor assay was noted when the crude mix was employed as the source of the target protease. Although there were some variations in the effects of inhibitor dilution, the most highly ranked vehicles remained inhibitory consistently in comparison to the profile with the target protease. The relative profile and composition of the top tiers of vehicles was identical. Z-LLL-AFC, Z-LLY-AFC, Mu-LY-AFC, Boc-VPR-AFC, Z-SY-AFC, Z-RR-AFC, Z-FLF-AFC, Z-LGR-AFC consistently presented as the top eight vehicles (Fig. 5b), respectively, based upon their V values (Table 2). […] It was notable that the three vehicles had very similar V values. […] As was mentioned, this vehicle along with Z-LLL-AFC and Z-LLY-AFC, were consistently the most inhibitory vehicles. The V values of the most inhibitory vehicle series are shown below in Table 2. Again, a clear break between the first and second tier vehicles could be noted with the V value. Table 2. Vehicles and V value rankings.
# [5] = tested on: purified cysteine protease of Taenia solium; experiment: Human IgG degradation inhibition test, western blot (Step IV), purified enzyme; assay type: biochemical; conditions: 18 hrs, 37°C, E 64 10^-6 M, vehicle 10^-3 M
# Method: (§4) To conduct this assessment, a western blot was performed. IgG digestion was detected by incubating 20 ul of T. solium purified enzyme or T. so/ium extract with 1 ug of human IgG (Sigma, St. Louis) in a final volume of 100 ul of assay buffer. Exogenous thiol activation was assessed by incubating the assay in the presence or absence of cysteine. The catalytic class of the IgG protease was determined by pre-incubating the following proteinase inhibitors at their active concentrations, with the enzyme: E 64 (10^-6 M, cysteine proteinases), phenylmethylsulfonyl fluoride (PMSF) (10^-3 M, serine proteinases), pepstatin A (10^-6 M, aspartic proteinases), and 1,10 phenanthroline (10^-3 M, metalloproteinases), and the vehicle, Mu-Leu-Tyr-AFC (10^-3 M). After addition of IgG, the assay was incubated overnight (37°C, 18 hrs). Subsequently, 100 ul of the mixture was boiled in sodium dodecyl sulfate polyacrylamide gel electrophoresis (SDS-PAGE) sample buffer with 2% 2-mercaptoethanol, separated by 12.5% SDS-PAGE, and blotted onto a polyvinylidene difluoride membrane. Tris buffered saline containing 0.1% bovine serum albumin and 0.05% Tween 20 (TBS-BSA) was used to block nonspecific binding. […]
# crude mix = experiment: Human IgG degradation inhibition test, western blot (Step IV), crude mix; assay type: biochemical, Taenia solium; conditions: crude mix compared with purified proteinase; data not shown
# Method: as §4
# Taenia solium crude mix [6] = experiment: Substrate cleavage screen of AFC-linked synthetic substrates (Step II), crude mix; assay type: biochemical; conditions: 0.4 M Citrate pH 4.9, 18 h, 37 °C
# Method: In order to prepare the Taenia solium "crude mix", dry frozen Taenia solium cysts were obtained from 6-12 month old cysticercotic pigs from villages in an endemic area of porcine cysticercosis in Mexico. Metacestodes were carefully dissected from the parasitized tissues, washed three times with PBS, and lyophilized. Parasite extracts were prepared by suspending 0.1 grams of dry frozen cysts in 10 ml of extraction buffer (0.4 M citrate, pH 4.9). The cysts were vortexed for three five-minute intervals with intermittent incubations (5 min) at 4 °C. Particulate material was removed by centrifugation (20,000 x g, 120 min) and the resulting soluble fraction filtered ([…]). In assay buffers, the detectable amount of the crude mix, as described above, was employed and incubated with the target substrates.
# as §3
# Similar steps were employed here as they are for the purified protease. As will be noted, similar conclusions were noted on the identification of the protease inhibitor on the crude mix, and the identical hypothesis was derived (Fig. 4b). It is notable that the most cleaved substrates were Z-FR-AFC, Z-FAR-AFC, Z-AAK-AFC, AP-AFC, Z-VLR-AFC, respectively. This cleavage pattern, noted along with others, was highly similar to the cleavage pattern due to the purified protease. […] Moreover, non-cleaved substrates were also highly similar, although there were subtle variations in relative cleavage for the non-cleaved substrates. However, this would be expected as fluorometric readings will tend to have subtle variation at lower readings due to background effects.
smiles,measurement,setting,value
"CC(C)[C@H](NC(=O)OC(C)(C)C)C(=O)N1CCC[C@H]1C(=O)N[C@@H](CCCNC(=N)N)C(=O)Nc1ccc2c(C(F)(F)F)cc(=O)oc2c1 [B-VPR-AFC, Boc-Val-Pro-Arg-AFC] (Boc-Val-Pro-Arg-{AFC})",inhibition with the final cocktail (7.4%),"[1]; 7.4% cocktail = Z-FR-AFC + Z-FAR-AFC + Z-AAK-AFC + AP-AFC + Z-VLR-AFC, 1X10^-6 M each, vehicle 8X10^-6 M",less than 20%
same,V Value,[1],0.116
same,V Value,[1]; listed as B-VPR-AC,0.120
same,percentage drop in inhibition between the 1.4% and the 7.4% cocktail,[2],38%
same,cleavage of AFC-linked substrate (Vmax),[3],noncleavable
same,Tier,Taenia solium crude mix [4],"2 (The second tier was composed of those vehicles, which produced inhibition between 20-50% inhibition when in the presence of the 1.4% cocktail)"
same,V Value,Taenia solium crude mix [4]; V = P * M,0.12
"CC(C)CC(NC(=O)C1OC1C(=O)O)C(=O)NCCCCNC(=N)N (stereo not shown) [E64, reference compound]",inhibition of cleavage of human IgG,[5],Inhibition was noted
CC(C)C[C@H](NC(=O)CCC(=O)O)C(=O)N[C@@H](Cc1ccc(O)cc1)C(=O)Nc1ccc2c(C(F)(F)F)cc(=O)oc2c1 [Suc-Leu-Tyr-AFC] (Suc-Leu-Tyr-{AFC}),inhibition of cleavage of human IgG,[5],inhibit
same,concentration required for inhibition of IgG cleavage,crude mix,greater
C[C@H](NC(=O)OCc1ccccc1)C(=O)N[C@@H](C)C(=O)N[C@@H](CCCCN)C(=O)Nc1ccc2c(C(F)(F)F)cc(=O)oc2c1 [Z-AAK-AFC] (Cbz-Ala-Ala-Lys-{AFC}),cleavage of AFC-linked substrate (Vmax),Taenia solium crude mix [6],most cleaved
C[C@H](NC(=O)[C@H](Cc1ccccc1)NC(=O)OCc1ccccc1)C(=O)N[C@@H](CCCNC(=N)N)C(=O)Nc1ccc2c(C(F)(F)F)cc(=O)oc2c1 [Z-FAR-AFC] (Cbz-Phe-Ala-Arg-{AFC}),cleavage of AFC-linked substrate (Vmax),Taenia solium crude mix [6],most cleaved
"N=C(N)NCCC[C@H](NC(=O)[C@H](Cc1ccccc1)NC(=O)OCc1ccccc1)C(=O)Nc1ccc2c(C(F)(F)F)cc(=O)oc2c1 [Z-FR-AFC, Z-Phe-Arg-AFC, reference compound] (Cbz-Phe-Arg-{AFC})",cleavage of AFC-linked substrate (Vmax),[3],cleaved
same,cleavage of AFC-linked substrate (Vmax),[3]; listed as Z-Phe-Arg-AFC,highest Vmax
same,cleavage of AFC-linked substrate (Vmax),Taenia solium crude mix [6],most cleaved
CC(C)C[C@H](NC(=O)[C@@H](NC(=O)OCc1ccccc1)C(C)C)C(=O)N[C@@H](CCCNC(=N)N)C(=O)Nc1ccc2c(C(F)(F)F)cc(=O)oc2c1 [Z-VLR-AFC] (Cbz-Val-Leu-Arg-{AFC}),cleavage of AFC-linked substrate (Vmax),Taenia solium crude mix [6],most cleaved
